Laboratory results reported in patent publication US20080305066A1, “2-C-Substituted Propane-1,3-Dicarbonyl Compounds and Their Use in Neutralising Malodour” (GIVAUDAN SA, priority 2005, published 2008).

Experiments:
[1] = Neutralization of human sweat in aqueous environment, two chamber sample (headspace GC-MS); settings: 5.0 μmol test compound on viscose filter, 16 h at 35° C., vs blank samples; for % Headspace reduction of malodours compounds: 3-mercapto-1-butanol: aqueous 3-mercapto-1-butanol (17 mM) with 3-methyl hexanoic acid (23 mM); for % Headspace reduction of malodours compounds: 3-methyl hexanoic acid: aqueous 3-methyl hexanoic acid (23 mM) with 3-mercapto-1-butanol (17 mM)
Procedure: A two chamber sample was prepared as depicted in FIG. 1. It is composed of the headspace vial (1′) described in example 26 as the outer containment and a standard HPLC-auto sampler vial (2′) as the inner containment. The test compound (5.0 μmol) is absorbed on viscose filter (3′) (applied as CH2Cl2-solution and let evaporate). An amount of 100 ul of an aqueous solution of 3-methyl hexanoic acid (23 mM) and 3-mercapto-1-butanol (17 mM), is placed on the bottom of the inner vial (2′). A screw cap containing the filter (3′) is screwed tightly on the HPLC-vial (2′), which is placed in the headspace vial (1′). The headspace vial is closed with an aluminium seal containing a rubber septum (5′). Blank samples containing an empty filter (3′) and the aqueous solution of 3-methyl hexanoic acid and 3-mercapto-1-butanol in the inner vial as described above are prepared (1 blank per 3 test samples). The samples are left standing for 16 h at 35° C., then submitted to headspace analysis as described in example 26.
The malodourant compounds (3-methyl hexanoic acid and 3-mercapto-1-butanol) diffuse through the filter into the outer volume (6′). Therefore a compound of formula 1 (neutralizing substance) applied on the filter (3′) will reduce the headspace concentration of the sweat malodourants in the outer volume compared to the blank samples.

[2] = Neutralization of propyl mercaptane (headspace GC-MS); settings: 0.25 ml 4 mM test compound + 0.25 ml 4 mM propyl mercaptane in dimethylsulfoxide/H2O 1:1, room temperature, 3 h, vs blank samples
Procedure: A 23×75 mm-headspace vial is charged with 0.25 ml of a 4 mM-solution of the test compound in dimethylsulfoxide/H2O 1:1. One blank sample containing 0.25 ml of dimethylsulfoxide/H2O 1:1 is prepared per 3 test samples. The vials are sealed with a 20 mm-aluminium seal containing a rubber septum. At 15 min-intervals (which is the time of 1 GC-analysis run) 0.25 ml of a 4 mM-solution of propyl mercaptane in dimethylsulfoxide/H2O 1:1 is added to each sample via cannula.
The samples are left at room temperature for 3 h, then submitted to headspace analysis using a headspace auto sampler connected to a GC-MS apparatus. Per sample 250 μl of headspace is injected. The peak areas (MS-ion current) of propyl mercaptane is compared to the averaged value from the blank samples to calculate the reduction of headspace concentration.

[3] = Olfactory evaluation against sweat-malodour reconstitution (panel test); settings: 50 μl of 1% solution in ethanol on malodour treated cotton swatch; LMS rating, expert panel of 20 assessors; relative to swatch without test compound
Procedure: An ethanolic solution of axilla-malodour reconstitution is applied on a 1×1 cm cotton swatch (100 ∥l, 0.1% wt/wt), then 50 μl of the test compound (1% solution in ethanol) are dosed to the malodour treated swatches. The malodour intensity is rated on a LMS (labelled magnitude scale) by an expert panel of 20 assessors. The results are then expressed in % reduction relative to malodour of a swatch without adding a test compound.

Q: With CCOC(=O)C(OCC)C(C(C)=O)C(=O)OCC (stereo not shown) [drawing 59] as the molecule, how does the “% Headspace reduction of malodours compounds: 3-mercapto-1-butanol” value (“% Headspace reduction … 3-mercapto-1-butanol” below) [1] read?
A: 100%

Q: And the “% Headspace reduction of malodours compounds: 3-methyl hexanoic acid” value (“% Headspace reduction … 3-methyl hexanoic acid” for short) [1]?
A: 0%

Q: For CCOC(=O)C(C)=C(C(=O)OCC)C(=O)OCC, which “% Headspace Reduction” value [2] is on record?
A: 20%

Q: Which melting point does the source give for CCOc1cc(C=C(C(C)=O)C(C)=O)ccc1O [Example 7] here?
A: 126 to 128 °C

Q: For CCCCCCC/C=C(/C(C)=O)C(=O)OCC [drawing 63], which “% Reduction of axilla malodour intensity in panel test” value (“% Reduction” below) [3] is on record?
A: 82%

Q: With CCOc1cc(C=C(C(C)=O)C(C)=O)ccc1O [drawing 61] as the molecule, how does the “% Headspace reduction … 3-mercapto-1-butanol” value [1] read?
A: 41%

Q: What about the “% Headspace reduction … 3-methyl hexanoic acid” value [1] of the same molecule?
A: 9%

Q: Which “% Headspace reduction … 3-mercapto-1-butanol” value [1] does the source give for CCOC(=O)/C=C(\C(=O)OCC)C(=O)c1ccccc1 [drawing 60] here?
A: 85%

Q: What about the “% Headspace reduction … 3-methyl hexanoic acid” value [1] of the same molecule?
A: 28%

Q: Which “% Headspace Reduction” value [2] does the source give for CCOC(=O)C(O)C(C(=O)OC)C(=O)C(C)(C)C (stereo not shown) here?
A: 15%

Q: With CCCCCCCC=C(C(=O)OCC)C(=O)OCC [drawing 55] as the molecule, how does the “% Headspace reduction … 3-mercapto-1-butanol” value [1] read?
A: 22%

Q: What about the “% Headspace reduction … 3-methyl hexanoic acid” value [1] of the same molecule?
A: 0%

Q: Which “% Headspace Reduction” value [2] does the source give for CCOC(=O)C(O)C(C(=O)OCC)C(=O)c1ccccc1 (stereo not shown) here?
A: 20%

Q: With CCOC(=O)C(O)C(C(C)=O)C(=O)OCC (stereo not shown) as the molecule, how does the “% Headspace Reduction” value [2] read?
A: 62%

Q: Which “% Headspace Reduction” value [2] does the source give for CCOC(=O)C(OCC)C(C(C)=O)C(=O)c1ccccc1 (stereo not shown) here?
A: 22%

Q: For CCOC(=O)C(OCC)C(C(C)=O)C(=O)OCC (stereo not shown) [drawing 42], which “% Headspace Reduction” value [2] is on record?
A: 64%

Q: With CCOC(=O)/C=C(/C(C)=O)C(=O)OCC [drawing 36] as the molecule, how does the “% Headspace Reduction” value [2] read?
A: 100%

Q: For CCOC(=O)C=C(C(C)=O)C(C)=O [drawing 38], which “% Headspace Reduction” value [2] is on record?
A: 100%

Q: For CC(=O)C(=CC(C)CCC=C(C)C)C(C)=O (stereo not shown), which “% Headspace Reduction” value [2] is on record?
A: 8%

Q: For CCOC(=O)C(OC)C(C(C)=O)C(=O)OCC (stereo not shown), which “% Headspace Reduction” value [2] is on record?
A: 54%

Q: With CCCC(=O)/C(C(=O)OCC)=C(\O)C(=O)OCC as the molecule, how does the “% Headspace Reduction” value [2] read?
A: 15%

Q: Which “% Reduction” value [3] does the source give for CCOC(=O)C(OCC)C(C(C)=O)C(=O)OCC (stereo not shown) [drawing 65] here?
A: 67%

Q: For CCOC(=O)C(O)C(C(C)=O)C(=O)OC(C)(C)C (stereo not shown), which “% Headspace Reduction” value [2] is on record?
A: 45%

Q: For CCCCCCOC(=O)/C=C/C(=O)OCCCCCC [DHF, Dihexylfumarate, reference compound], which “% Headspace Reduction” value [2] is on record?
A: 5%

Q: What about the “% Headspace reduction … 3-mercapto-1-butanol” value [1] of the same molecule?
A: 10%

Q: What about the “% Headspace reduction … 3-methyl hexanoic acid” value [1] of the same molecule?
A: 0%

Q: What about the “% Reduction” value [3] of the same molecule?
A: 68%

Q: For CCOC(=O)/C=C(\C(=O)OC)C(=O)C(C)(C)C, which “% Headspace Reduction” value [2] is on record?
A: 82%

Q: For CCOC(=O)/C=C(/C(C)=O)C(=O)OCC [drawing 57], which “% Headspace reduction … 3-mercapto-1-butanol” value [1] is on record?
A: 98%

Q: What about the “% Headspace reduction … 3-methyl hexanoic acid” value [1] of the same molecule?
A: 10%

Q: Which “% Headspace Reduction” value [2] does the source give for CCCC(=O)C(C(=O)OCC)C(OCC)C(=O)OCC (stereo not shown) here?
A: 38%

Q: Which “% Headspace Reduction” value [2] does the source give for CCOC(=O)/C=C(\C(C)=O)C(=O)c1ccccc1 here?
A: 100%

Q: With CCCCCCC/C=C(/C(C)=O)C(=O)OCC [drawing 56] as the molecule, how does the “% Headspace reduction … 3-mercapto-1-butanol” value [1] read?
A: 35%

Q: And the “% Headspace reduction … 3-methyl hexanoic acid” value [1]?
A: 10%

Q: Which “% Headspace Reduction” value [2] does the source give for CCOC(=O)/C=C(\C(=O)OCC)C(=O)c1ccccc1 [drawing 50] here?
A: 100%

Q: With CCOC(=O)/C=C(/C(C)=O)C(=O)OCC [drawing 64] as the molecule, how does the “% Reduction” value [3] read?
A: 76%

Q: For CC(=O)C(=CC(C)C)C(C)=O, which “% Headspace Reduction” value [2] is on record?
A: 34%

Q: For CCCCCCCC=C(C(=O)OCC)C(=O)OCC [drawing 62], which “% Reduction” value [3] is on record?
A: 59%

Q: For CCOC(=O)C(OCC)C(C(C)=O)C(C)=O (stereo not shown), which “% Headspace Reduction” value [2] is on record?
A: 82%

Q: Which “% Headspace Reduction” value [2] does the source give for CCOC(=O)C(OCC)C(C(=O)OCC)C(=O)c1ccccc1 (stereo not shown) here?
A: 10%

Q: Which “% Headspace reduction … 3-mercapto-1-butanol” value [1] does the source give for CCOC(=O)C=C(C(C)=O)C(C)=O [drawing 58] here?
A: 100%

Q: And the “% Headspace reduction … 3-methyl hexanoic acid” value [1]?
A: 0%

Q: For CCCC(=O)/C(=C/C(=O)OCC)C(=O)OCC, which “% Headspace Reduction” value [2] is on record?
A: 100%
